Assay results as given in ChEMBL document CHEMBL1201862, “PubChem BioAssay data set” (2004).
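Following 48 hours of exposure in 96-well plates, responses at five concentrations were used to interpolate endpoints linearly. Abbreviation: GI50, concentration required for 50% inhibition of growth.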 The source made the active and inactive calls. No stated cut-off is given here; in the data, active = GI50 up to about 1.1 µM and inactive = higher.

What was measured:
Assay in all cases: NCI anticancer screen, dose series, 48 h
786-0 = tested on: 786-0
A498 = tested on: A498
DU-145 = tested on: DU-145
HCT-15 = tested on: HCT-15
HOP-92 = tested on: HOP-92
IGROV-1 = tested on: IGROV-1
K562 = tested on: K562
KM12 = tested on: KM12
LOX IMVI = tested on: LOX IMVI
MDA-MB-231 = tested on: MDA-MB-231
MOLT-4 = tested on: MOLT-4
NCI-H460 = tested on: NCI-H460
OVCAR-3 = tested on: OVCAR-3
OVCAR-4 = tested on: OVCAR-4
OVCAR-8 = tested on: OVCAR-8
SF-295 = tested on: SF-295
SK-MEL-28 = tested on: SK-MEL-28
SK-MEL-5 = tested on: SK-MEL-5
UACC-62 = tested on: UACC-62
DMS-273 = tested on: DMS-273

Measured: GI50

ON(CCc1ccccn1)Cc1ccccc1
inactive: 786-0 > 100 µM | A498 > 100 µM | DU-145 > 100 µM | HOP-92 > 100 µM | IGROV-1 > 100 µM | K562 31.7 µM | KM12 > 100 µM | LOX IMVI > 100 µM | MDA-MB-231 > 100 µM | MOLT-4 > 100 µM | NCI-H460 > 100 µM | OVCAR-3 > 100 µM | OVCAR-4 > 100 µM | OVCAR-8 > 100 µM | SF-295 > 100 µM | SK-MEL-28 > 100 µM | SK-MEL-5 > 100 µM | UACC-62 > 100 µM
> 100 µM: HCT-15

Cc1ccc(S(=O)(=O)NC2(C=O)CCCC3CCCCC32)cc1 (stereo unspecified)
inactive: 786-0 > 100 µM | A498 > 100 µM | DMS-273 > 100 µM | IGROV-1 > 100 µM | K562 > 100 µM | KM12 > 100 µM | MOLT-4 > 100 µM | NCI-H460 > 100 µM | OVCAR-3 > 100 µM | OVCAR-4 > 100 µM | OVCAR-8 > 100 µM | SK-MEL-28 > 100 µM | SK-MEL-5 > 100 µM | UACC-62 > 100 µM
> 100 µM: HCT-15

CCC(CC)NC1=C(NC(C)=O)C(=O)c2ccccc2C1=O
inactive: 786-0 > 50 µM | DMS-273 > 50 µM | IGROV-1 > 50 µM | K562 > 50 µM | KM12 > 50 µM | LOX IMVI > 50 µM | MOLT-4 > 50 µM | NCI-H460 > 50 µM | OVCAR-3 > 50 µM | OVCAR-4 > 50 µM | OVCAR-8 > 50 µM | SF-295 > 50 µM | SK-MEL-28 > 50 µM | SK-MEL-5 > 50 µM | UACC-62 > 50 µM
active: HOP-92 0.339 µM
> 50 µM: HCT-15

COc1ccc(CNc2nc3cc(C(F)(F)F)ccc3nc2C(=O)O)cc1
inactive: 786-0 23.1 µM | A498 21.5 µM | DU-145 26.7 µM | HOP-92 20.3 µM | IGROV-1 27.4 µM | K562 24.7 µM | KM12 22.4 µM | LOX IMVI 19.4 µM | MDA-MB-231 26.9 µM | MOLT-4 21.8 µM | NCI-H460 31.4 µM | OVCAR-3 15.3 µM | OVCAR-4 32.9 µM | OVCAR-8 32.3 µM | SF-295 32 µM | SK-MEL-28 37.3 µM | SK-MEL-5 12.3 µM | UACC-62 21.9 µM
22.6 µM: HCT-15

COC(=O)c1ccc2n[se]nc2c1
> 100 µM: HCT-15
inactive: 786-0 > 100 µM | A498 > 100 µM | DMS-273 > 100 µM | IGROV-1 > 100 µM | K562 > 100 µM | KM12 > 100 µM | LOX IMVI > 100 µM | MOLT-4 > 100 µM | NCI-H460 > 100 µM | OVCAR-4 > 100 µM | OVCAR-8 > 100 µM | SF-295 > 100 µM | SK-MEL-28 > 100 µM | SK-MEL-5 > 100 µM | UACC-62 > 100 µM

O=C(CCCl)NN=C1NCCCN1
> 100 µM: HCT-15
inactive: 786-0 > 100 µM | A498 > 100 µM | DU-145 > 100 µM | HOP-92 > 100 µM | IGROV-1 > 100 µM | K562 > 100 µM | KM12 > 100 µM | LOX IMVI > 100 µM | MDA-MB-231 > 100 µM | MOLT-4 > 100 µM | NCI-H460 > 100 µM | OVCAR-3 > 100 µM | OVCAR-4 > 100 µM | OVCAR-8 > 100 µM | SF-295 > 100 µM | SK-MEL-28 > 100 µM | SK-MEL-5 > 100 µM | UACC-62 > 100 µM

O=C1C(=O)c2c(oc(=O)c3ccccc23)-c2ccccc21
inactive: 786-0 > 25 µM | A498 > 25 µM | DU-145 > 25 µM | HOP-92 15.3 µM | IGROV-1 > 25 µM | K562 > 25 µM | KM12 > 25 µM | LOX IMVI 16.9 µM | MDA-MB-231 > 25 µM | MOLT-4 > 25 µM | NCI-H460 > 25 µM | OVCAR-3 7.05 µM | OVCAR-4 6.5 µM | OVCAR-8 16.4 µM | SF-295 > 25 µM | SK-MEL-28 > 25 µM | SK-MEL-5 12.6 µM | UACC-62 > 25 µM
17.6 µM: HCT-15

O=C(Nc1ccccc1SC(/C=C/NNC1=NN=C(c2ccccc2)C(c2ccccc2)N1)c1ccccc1)c1ccc(Cl)cc1Cl (stereo unspecified)
inactive: 786-0 37.9 µM | A498 43.5 µM | DMS-273 41.6 µM | IGROV-1 50 µM | K562 60.1 µM | KM12 38.1 µM | LOX IMVI 36.2 µM | MOLT-4 > 10 µM | NCI-H460 42.7 µM | OVCAR-3 44.5 µM | OVCAR-4 35.9 µM | OVCAR-8 74.5 µM | SF-295 25.6 µM | SK-MEL-28 38.8 µM | SK-MEL-5 42.8 µM | UACC-62 36.8 µM
36 µM: HCT-15

COc1ccc(NC(=O)CC(=O)N/N=C/c2ccc(N(CCC#N)S(C)(=O)=O)cc2)cc1
inactive: 786-0 > 100 µM | A498 > 100 µM | DMS-273 > 100 µM | IGROV-1 > 100 µM | K562 > 100 µM | KM12 > 100 µM | LOX IMVI > 100 µM | MOLT-4 > 100 µM | NCI-H460 > 100 µM | OVCAR-3 > 100 µM | OVCAR-4 > 100 µM | OVCAR-8 > 100 µM | SF-295 > 100 µM | SK-MEL-28 > 100 µM | SK-MEL-5 > 100 µM | UACC-62 > 100 µM
> 100 µM: HCT-15

CN(C)c1ccc(C2SCC(=O)N2c2nc3cc4sc(N5C(=O)CSC5c5ccc(N(C)C)cc5)nc4cc3s2)cc1 (stereo unspecified)
inactive: 786-0 > 100 µM | A498 27.9 µM | DU-145 13.2 µM | HOP-92 > 60.5 µM | IGROV-1 29.3 µM | K562 40.9 µM | KM12 39.5 µM | LOX IMVI 43.9 µM | MDA-MB-231 > 51.8 µM | MOLT-4 3.37 µM | NCI-H460 1.53 µM | OVCAR-3 48.3 µM | OVCAR-4 32.9 µM | OVCAR-8 > 70.5 µM | SF-295 46.6 µM | SK-MEL-28 > 72.8 µM | SK-MEL-5 32 µM | UACC-62 > 72.3 µM
8.87 µM: HCT-15

COC(=O)[C@]12CC[C@H]3CN(C(=O)OCc4ccccc4)[C@H]([C@H]31)[C@H](c1ccccc1)N2
69.3 µM: HCT-15
inactive: 786-0 > 100 µM | A498 80 µM | DU-145 > 100 µM | HOP-92 72.3 µM | IGROV-1 > 100 µM | K562 58.1 µM | KM12 72.6 µM | LOX IMVI > 100 µM | MDA-MB-231 59.3 µM | MOLT-4 33 µM | NCI-H460 > 100 µM | OVCAR-3 74.1 µM | OVCAR-4 64.7 µM | OVCAR-8 78.9 µM | SF-295 58.1 µM | SK-MEL-28 > 100 µM | SK-MEL-5 22.9 µM | UACC-62 55 µM

CC(=O)O[C@]12CCCCC1C1(O)C(O)CCCC[C@H]12 (stereo partly specified)
> 100 µM: HCT-15
inactive: 786-0 > 100 µM | DMS-273 > 100 µM | K562 > 100 µM | KM12 > 100 µM | LOX IMVI > 100 µM | MOLT-4 > 100 µM | NCI-H460 > 100 µM | OVCAR-4 > 100 µM | OVCAR-8 > 100 µM | SF-295 > 100 µM | SK-MEL-28 > 100 µM | SK-MEL-5 > 100 µM | UACC-62 > 100 µM

O=c1c2ccccc2n2n1Cc1ccccc1C2
> 100 µM: HCT-15
inactive: 786-0 > 100 µM | A498 > 100 µM | DU-145 > 100 µM | HOP-92 > 100 µM | IGROV-1 > 100 µM | K562 > 100 µM | KM12 > 100 µM | LOX IMVI > 100 µM | MDA-MB-231 > 100 µM | MOLT-4 > 100 µM | NCI-H460 > 100 µM | OVCAR-3 > 100 µM | OVCAR-4 > 100 µM | OVCAR-8 > 100 µM | SF-295 > 100 µM | SK-MEL-28 > 100 µM | SK-MEL-5 > 100 µM | UACC-62 > 100 µM

CC(=O)OC12C=CC(=O)N1c1ccccc1C(=O)O2 (stereo unspecified)
inactive: 786-0 > 100 µM | DMS-273 > 100 µM | HOP-92 > 100 µM | IGROV-1 > 100 µM | K562 > 100 µM | KM12 > 100 µM | LOX IMVI > 100 µM | MOLT-4 > 100 µM | NCI-H460 > 100 µM | OVCAR-3 > 100 µM | OVCAR-4 > 100 µM | OVCAR-8 > 100 µM | SF-295 > 100 µM | SK-MEL-28 > 100 µM | SK-MEL-5 > 100 µM | UACC-62 > 100 µM
> 100 µM: HCT-15

CC(C)/C(=N\[N+](C)(C)C)c1ccccc1
inactive: 786-0 > 100 µM | A498 > 100 µM | DU-145 > 100 µM | HOP-92 69.3 µM | IGROV-1 > 100 µM | K562 > 100 µM | KM12 > 100 µM | LOX IMVI > 100 µM | MDA-MB-231 > 100 µM | MOLT-4 > 100 µM | NCI-H460 > 100 µM | OVCAR-3 > 100 µM | OVCAR-4 > 100 µM | OVCAR-8 > 100 µM | SF-295 > 100 µM | SK-MEL-28 > 100 µM | SK-MEL-5 > 100 µM | UACC-62 > 100 µM
> 100 µM: HCT-15

C=CC1(C)CCC(C(C)C(=O)C(C=C(C)C)OC(C)=O)C12C(=O)Oc1ccccc1C2=O (stereo unspecified)
38.5 µM: HCT-15
inactive: 786-0 84.1 µM | DMS-273 23.4 µM | HOP-92 40.2 µM | IGROV-1 72.3 µM | K562 31.6 µM | KM12 44.8 µM | LOX IMVI 35.7 µM | MOLT-4 26.2 µM | NCI-H460 29.6 µM | OVCAR-3 38.9 µM | OVCAR-4 45.2 µM | OVCAR-8 37.6 µM | SF-295 47.9 µM | SK-MEL-28 > 100 µM | UACC-62 49 µM
